Measured values published in PubChem BioAssay (NCI).
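GI50 marks 50% less growth. TGI denotes the concentration required for complete inhibition of growth.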

How the values were obtained:
Test in all cases: DTP human tumour cell line panel, 384-well format
[1] = test system: MCF7 breast
[2] = test system: SK-MEL-2 melanoma
[3] = test system: RPMI-8226 leukemia
[4] = test system: OVCAR-8 ovarian
[5] = test system: MDA-MB-231 breast
[6] = test system: SK-MEL-5 melanoma
[7] = test system: IGROV1 ovarian
[8] = test system: ACHN renal
[9] = test system: A549 NSCLC
[10] = test system: MDA-MB-468 breast
[11] = test system: 786-0 renal
[12] = test system: NCI-H460 NSCLC
[13] = test system: M14 melanoma
[14] = test system: HT29 colon
[15] = test system: DU-145 prostate
[16] = test system: SF-268 CNS
[17] = test system: MALME-3M melanoma
[18] = test system: SF-539 CNS
[19] = test system: UACC-62 melanoma
[20] = test system: NCI-H522 lung
[21] = test system: NCI/ADR-RES ovarian
[22] = test system: OVCAR-5 ovarian
[23] = test system: SW-620 colon
[24] = test system: SK-OV-3 ovarian
[25] = test system: HL-60(TB) leukemia
[26] = test system: HOP-92 NSCLC
[27] = test system: OVCAR-3 ovarian
[28] = test system: SN12C renal
[29] = test system: BT-549 breast
[30] = test system: NCI-H226 lung
[31] = test system: HCC-2998 colon
[32] = test system: CCRF-CEM leukemia
[33] = test system: KM12 colon
[34] = test system: SNB-19 CNS
[35] = test system: PC-3 prostate
[36] = test system: TK-10 renal
[37] = test system: HS 578T breast
[38] = test system: SK-MEL-28 melanoma
[39] = test system: T-47D breast
[40] = test system: SF-295 CNS
[41] = test system: CAKI-1 renal
[42] = test system: SNB-75 CNS
[43] = test system: COLO 205 colon
[44] = test system: NCI-H23 lung
[45] = test system: OVCAR-4 ovarian
[46] = test system: HCT-15 colon
[47] = test system: MDA-MB-435 melanoma
[48] = test system: NCI-H322M lung
[49] = test system: RXF 393 renal
[50] = test system: EKVX NSCLC
[51] = test system: MOLT-4 leukemia
[52] = test system: HOP-62 NSCLC
[53] = test system: SR leukemia
[54] = test system: A498 renal
[55] = test system: U251 glioblastoma
[56] = test system: UACC-257 melanoma

O=c1[nH]c(C2CCCN2)nc2c1oc1ccc(Cl)cc12 (configuration not stated)
GI50 [1]: > 100 µM
TGI [1]: > 100 µM
GI50 [2]: > 100 µM
TGI [2]: > 100 µM
GI50 [3]: > 100 µM
TGI [3]: > 100 µM
GI50 [4]: > 100 µM
TGI [4]: > 100 µM
GI50 [5]: 99.5 µM
TGI [5]: > 100 µM
GI50 [6]: 36.2 µM
TGI [6]: > 100 µM
GI50 [7]: > 100 µM
TGI [7]: > 100 µM
GI50 [8]: > 100 µM
TGI [8]: > 100 µM
GI50 [9]: > 100 µM
TGI [9]: > 100 µM
GI50 [10]: 21.2 µM
TGI [10]: 56.7 µM
GI50 [11]: > 100 µM
TGI [11]: > 100 µM
GI50 [12]: > 100 µM
TGI [12]: > 100 µM
GI50 [13]: 62.8 µM
TGI [13]: > 100 µM
GI50 [14]: > 100 µM
TGI [14]: > 100 µM
GI50 [15]: > 100 µM
TGI [15]: > 100 µM
GI50 [16]: > 100 µM
TGI [16]: > 100 µM
GI50 [17]: 14.8 µM
TGI [17]: > 100 µM
GI50 [18]: 53.6 µM
TGI [18]: > 100 µM
GI50 [19]: > 100 µM
TGI [19]: > 100 µM
GI50 [20]: 14.4 µM
TGI [20]: 31 µM
GI50 [21]: > 100 µM
TGI [21]: > 100 µM
GI50 [22]: > 100 µM
TGI [22]: > 100 µM
GI50 [23]: > 100 µM
TGI [23]: > 100 µM
GI50 [24]: > 100 µM
TGI [24]: > 100 µM
GI50 [25]: 29.8 µM
TGI [25]: > 100 µM
GI50 [26]: 65.3 µM
TGI [26]: > 100 µM
GI50 [27]: > 100 µM
TGI [27]: > 100 µM
GI50 [28]: > 100 µM
TGI [28]: > 100 µM
GI50 [29]: 29.3 µM
TGI [29]: 78.4 µM
GI50 [30]: 49.5 µM
TGI [30]: > 100 µM
GI50 [31]: > 100 µM
TGI [31]: > 100 µM
GI50 [32]: 18.2 µM
TGI [32]: 37.8 µM
GI50 [33]: > 100 µM
TGI [33]: > 100 µM
GI50 [34]: > 100 µM
TGI [34]: > 100 µM
GI50 [35]: > 100 µM
TGI [35]: > 100 µM
GI50 [36]: > 100 µM
TGI [36]: > 100 µM
GI50 [37]: > 100 µM
TGI [37]: > 100 µM
GI50 [38]: > 100 µM
TGI [38]: > 100 µM
GI50 [39]: 19 µM
TGI [39]: 35 µM
GI50 [40]: > 100 µM
TGI [40]: > 100 µM
GI50 [41]: 57 µM
TGI [41]: > 100 µM
GI50 [42]: 38.1 µM
TGI [42]: > 100 µM
GI50 [43]: 31.2 µM
TGI [43]: 83 µM
GI50 [44]: > 100 µM
TGI [44]: > 100 µM
GI50 [45]: 81.8 µM
TGI [45]: > 100 µM
GI50 [46]: > 100 µM
TGI [46]: > 100 µM
GI50 [47]: > 100 µM
TGI [47]: > 100 µM
GI50 [48]: > 100 µM
TGI [48]: > 100 µM
GI50 [49]: 21 µM
TGI [49]: 43.1 µM
GI50 [50]: 85 µM
TGI [50]: > 100 µM
GI50 [51]: 31 µM
TGI [51]: > 100 µM
GI50 [52]: > 100 µM
TGI [52]: > 100 µM
GI50 [53]: 37.3 µM
TGI [53]: > 100 µM
GI50 [54]: 58.5 µM
TGI [54]: > 100 µM
GI50 [55]: > 100 µM
TGI [55]: > 100 µM
GI50 [56]: > 100 µM
TGI [56]: > 100 µM
